Reference: publication PMC4369170 (ACS chemical biology, 2015)
Where two headings read alike, the source gives them in different places.

Experiments:
[1] = biological target: T1, PfENT1 (Plasmodium falciparum, UniProt Q8IDM6); experiment: [3H]adenosine uptake into ade2Δ + PfENT1-CO yeast; assay type: cell-based
[2] = test system: chloroquine-resistant Dd2 parasites; experiment: Dd2 parasite viability / proliferation; assay type: cell-based, Plasmodium falciparum; settings: for IC50: Plasmodium falciparum, DD2, read-out: IC50 Dd2 parasite viability – high purine media; for IC50 with xanthine as purine source versus hypoxanthine: WT Dd2, 90 µM xanthine vs 10 µM hypoxanthine as sole purine source
[3] = biological target: T1, PfENT1; experiment: cell-based; settings: 125 µM 5-FUrd
[4] = biological target: T1, PfENT1; assay type: cell-based
[5] = biological target: T1, PfENT1; settings: cited from earlier work
[6] = biological target: T1, PfENT1; assay type: cell-based; settings: each compound at 10 µM; 125 µM 5-FUrd
[7] = test system: fui1Δ::PfENT1-HA-CO strain; experiment: 5-FUrd growth inhibition of PfENT1-HA-CO expressing fui1Δ yeast; assay type: cell-based; settings: Saccharomyces cerevisiae, read-out: 5-FUrd IC50, yeast cell growth, growth assessed by OD600
[8] = test system: PfENT4; experiment: [14C]2-deoxyadenosine uptake into PfENT4-expressing Xenopus oocytes; assay type: cell-based, Plasmodium falciparum; settings: concentrations up to 50 µM
[9] = test system: P. falciparum 3D7 strain; experiment: 3D7 parasite viability / proliferation, 72-h growth assay; settings: ~10× the IC50 concentration; first 24 h of culture
[10] = EC50 5-FUrd growth rescue of fui1Δ::PfENT1-HA-CO, mean ± SD, N ≥ 3

T1 sequence (Q8IDM6 whole entry): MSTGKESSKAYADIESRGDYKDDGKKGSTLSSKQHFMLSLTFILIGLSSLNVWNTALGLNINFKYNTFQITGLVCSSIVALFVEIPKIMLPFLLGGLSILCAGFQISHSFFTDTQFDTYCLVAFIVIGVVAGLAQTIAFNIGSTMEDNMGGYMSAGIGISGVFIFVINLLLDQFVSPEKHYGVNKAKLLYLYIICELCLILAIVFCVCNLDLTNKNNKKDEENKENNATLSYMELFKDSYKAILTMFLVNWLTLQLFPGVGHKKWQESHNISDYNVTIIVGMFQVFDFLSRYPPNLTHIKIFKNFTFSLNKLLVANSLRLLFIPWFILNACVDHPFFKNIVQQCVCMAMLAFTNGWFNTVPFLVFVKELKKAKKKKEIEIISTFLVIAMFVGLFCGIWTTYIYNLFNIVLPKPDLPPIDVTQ

Row | Compound | IC50 [2] | EC50 [3, 10] | IC50 [4] | IC50 with xanthine as purine source versus hypoxanthine [2] | other results
1 | Cc1ccccc1/C=C/c1nc2ccccc2c(=O)[nH]1 [Compound 13, 2-[2-(2-methylphenyl)vinyl]-4(3H)-quinazolinone] | 2.6 ± 0.2 µM | 4.7 ± 2.9 µM | 600 ± 100 nM | – | IC50 [1]: 3.9 ± 1.6 nM
2 | OCCN(CCO)c1nc(N2CCCCC2)c2nc(N(CCO)CCO)nc(N3CCCCC3)c2n1 [dipyridamole] | – | – | – | – | block of PfENT1 [5]: do not block; HTS outcome (positive = growth > four SD above no-growth control) [6]: not positive
3 | O=C(Nc1ccc(-c2nnc(-c3ccco3)o2)cc1)c1ccco1 [Compound 4, N-{4-[5-(2-furyl)-1,3,4-oxadiazol-2-yl]phenyl}-2-furamide] | 15.3 ± 2.7 µM | 5.7 ± 0.8 µM | 1700 ± 400 nM | – | –
4 | O=C(Nc1ccc(Cl)c(-c2nc3ncccc3o2)c1)c1cccs1 [Compound 19, N-(4-chloro-3-[1,3]oxazolo[4,5-b]pyridin-2-ylphenyl)-2-thiophenecarboxamide] | 37.4 ± 1.6 µM | 5.4 ± 0.8 µM | 1700 ± 200 nM | – | –
5 | O=C(Nc1ccc2nc(NC(=O)c3ccco3)sc2c1)c1ccco1 [Compound 1, N,N'-1,3-benzothiazole-2,6-diyldi(2-furamide)] | 25.8 ± 1.3 µM | 0.8 µM | 200 ± 100 nM | significantly lower | –
6 | O=c1[nH]c(=O)n([C@@H]2O[C@H](CO)[C@@H](O)[C@H]2O)cc1F [5-FUrd, 5-fluorouridine] | – | – | – | – | IC50 [7]: 7 ± 2 µM
7 | Cn1cc(C(=O)C(=O)Nc2ccc(C(=O)N3CCCC3)cc2)c2ccccc21 [Compound 5, 2-(1-methyl-1H-indol-3-yl)-2-oxo-N-[4-(pyrrolidin-1-ylcarbonyl)phenyl]acet amide] | 28.9 ± 2.6 µM | 6.5 ± 1.5 µM | 2000 ± 10 nM | significantly lower | –
8 | COc1cc(COc2ccc3c(C)cc(=O)oc3c2)cc(OC)c1OC [Compound 3, 4-methyl-7-[(3,4,5-trimethoxybenzyl)oxy] -2H-chromen-2-one] | 36.2 ± 6 µM | 2.3 ± 0.9 µM | 600 ± 100 nM | significantly lower | inhibition of [14C]2-deoxyadenosine uptake [8]: did not inhibit; parasite stage progression (microscopy) [9]: failed to progress beyond the ring stage
9 | COc1ccccc1C(=O)Nc1cccc(-c2nc3ncccc3o2)c1 [Compound 7, 2-methoxy-N-(3-[1,3]oxazolo[4,5-b]pyridin-2-ylphenyl)benzamide] | 31 ± 0.6 µM | 6.4 ± 0.9 µM | 1600 ± 10 nM | – | –
10 | O=[N+]([O-])c1ccc(CSc2ncnc3c2ncn3C2OC(CO)C(O)C2O)cc1 (stereo not shown) [nitrobenzylthioinosine] | – | – | – | – | block of PfENT1 [5]: do not block
11 | OC[C@H]1O[C@@H](n2cnc3c(O)ncnc32)[C@H](O)[C@@H]1O [Inosine, inosine, reference compound] | – | – | – | – | EC50 ([3]; EC50 rescue of fui1Δ::PfENT1-HA-CO strain growth, OD600): 3300 ± 200 µM; EC50 ([3]; EC50 rescue of fui1Δ::PfENT1-HA-CO strain growth, fluorescence): 5600 ± 2100 µM
12 | O=C(Nc1cccc(-c2nc3ncccc3o2)c1)c1cccc(F)c1 [Compound 6, 3-fluoro-N-(3-[1,3]oxazolo[4,5-b]pyridin-2-ylphenyl)benzamide] | 38.8 ± 4.9 µM | 5.7 ± 1.3 µM | 1100 ± 100 nM | – | –
13 | O=C(Nc1ccc(-c2nc3ncccc3o2)cc1)c1ccccc1Br [Compound 2, 2-bromo-N-(4-[1,3]oxazolo[4,5-b]pyridin-2-ylphenyl)benzamide] | 52.4 ± 5.7 µM | 6 ± 1.7 µM | 2100 ± 900 nM | significantly lower | –
